Legend:
skin of rabbits = assay: Primary skin irritation in rabbits; format: in vivo; settings: 10% in a 0.5% xanthan gel; undiluted, 0.5 ml to the skin of rabbits
Experimental: The preparations described above are applied without dilution at a dose of 0.5 ml to the skin of 3 rabbits according to the method recommended by the OCDE Directive concerning the study of “the acute irritant/corrosive effect on the skin”. The products are classified according to the criteria defined by the decree of 1/2/1982 published in the JORF of 21/02/82.

Human tyrosinase = target: T1, Human tyrosinase (Homo sapiens, UniProt P14679); assay: In vitro test of inhibition of human tyrosinase from melanocyte extracts (L-dopa/MBTH, OD 490 nm); format: biochemical; settings: melanocyte extract
T1 construct: endogenous in cells; host or cells: normal human melanocytes (abdominal surgery; several donors of fair, brown and black phototypes)
T1 sequence (P14679 19-529): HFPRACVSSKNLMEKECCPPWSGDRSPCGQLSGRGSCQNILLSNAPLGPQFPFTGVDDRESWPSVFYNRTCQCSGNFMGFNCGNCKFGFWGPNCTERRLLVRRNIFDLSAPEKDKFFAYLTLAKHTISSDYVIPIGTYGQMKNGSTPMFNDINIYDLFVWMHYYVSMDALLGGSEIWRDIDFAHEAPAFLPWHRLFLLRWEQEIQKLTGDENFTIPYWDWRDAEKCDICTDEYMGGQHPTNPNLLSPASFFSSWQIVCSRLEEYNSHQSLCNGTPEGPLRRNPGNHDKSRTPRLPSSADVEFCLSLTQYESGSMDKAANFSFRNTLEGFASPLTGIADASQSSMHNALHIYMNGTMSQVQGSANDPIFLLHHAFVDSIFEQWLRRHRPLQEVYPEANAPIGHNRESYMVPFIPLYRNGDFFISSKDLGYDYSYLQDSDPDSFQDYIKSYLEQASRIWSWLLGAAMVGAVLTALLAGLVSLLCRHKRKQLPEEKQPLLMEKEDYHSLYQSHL
Experimental: Human tyrosinase, obtained from melanocyte extracts obtained from healthy donors, catalyses the formation of L-dopaquinone from L-dopa. Now, the L-dopaquinone may be quantified by visible spectrophotometry at 490 nm by means of a chromogen: 3-methyl-2-benzothiazolinone hydrazone (MBTH).
The melanocyte extract is obtained after lysis of cell membranes of the normal human melanocytes, performed via a thermal shock. The supernatant is recovered and then incubated with MBTH (Sigma) and L-dopa (Sigma). […]

normal human melanocytes = assay: Cytotoxicity on normal human melanocytes, PNPP assay; format: cell-based; settings: 24 hours, relative to untreated wells
Experimental: The cytotoxicity of the active agents is studied on normal human melanocytes in 24-well plates, via assay with PNPP (P-nitrophenyl phosphate), this substance being converted into p-nitrophenol via the intracellular acid phosphatases of viable cells. The absorbance of p-nitrophenol at 405 nm is directly proportional to the number of viable cells.
The active agents are tested at 2 different concentrations (10^−4 M and 10^−5 M) and added to the culture medium and incubated at 37° C. for 24 hours. The assay with PNPP is performed on the cell lawn and the results are expressed as a percentage of viability relative to the negative control (untreated wells).

## COc1cc(/C=C/C(=O)NCCc2ccc(O)c(O)c2)ccc1O [Example 1, N-trans-feruloyldopamine]
Skin of rabbits
  Primary skin irritation classification: non-irritant to the skin
Human tyrosinase; 10^−4M, read-out: Inhibition of human tyrosinase, percentage of inhibition, Mean 10^−4M
  inhibition at 100 µM: 0%
Human tyrosinase; 10^−5M, read-out: Inhibition of human tyrosinase, percentage of inhibition, Mean 10^−5M
  inhibition at 10 µM: 0%
Normal human melanocytes; 10^−4 M
  Percentages of viability, Mean 10^−4 M: 94.49%
Normal human melanocytes; 10^−5 M
  Percentages of viability, Mean 10^−5 M: 119.83%
